Data published in publication PMC6594423, “Cobimetinib and trametinib inhibit platelet MEK but do not cause platelet dysfunction” (Platelets, 2018).

Test system: T1, MEK1 (platelet MEK; MEK1/2 not resolved)
T1 construct: gene MAP2K1
Test: western blot of ERK1/[…] phosphorylation (MEK substrate) in CRP- or TRAP-6-stimulated washed human platelets
Type: cell-based

log10 IC50 (M)	Compound	IC50
-9.5	O=C(c1ccc(F)c(F)c1Nc1ccc(I)cc1F)N1CC(O)([C@@H]2CCCCN2)C1 [Cobimetinib]	–
–	CC(=O)Nc1cccc(-n2c(=O)n(C3CC3)c(=O)c3c(Nc4ccc(I)cc4F)n(C)c(=O)c(C)c32)c1 [Trametinib]	−10.9 ± 0.43 (logIC50) log M
